Data: US10059667B2, “Antidiabetic compounds” (MERCK SHARP & DOHME CORP., priority 2014, dated 2018)
pEC50: −log10 of the molar value. Values belong to the compound of their own block, whether it stands above or below them.

How the values were obtained:
Format in all cases: cell-based
[1] = molecular target: T1, Human GPR40 (Homo sapiens (Human), UniProt O14842); test: Inositol Phosphate Turnover (IP1) Assay 2, HEK cells stably expressing human GPR40, CisBio IP-One kit; settings: HEK cells stably expressing human GPR40, 384-well
Experimental: (§1) Human and mouse GPR40 stable cell-lines were generated in CHO cells stably expressing NFAT BLA (Beta-lactamase). A human GPR40 stable cell-line was generated in HEK cells stably expressing the aequorin expressing reporter. The expression plasmids were transfected using lipofectamine (Life Technologies) following manufacturer's instructions. Stable cell-lines were generated following drug selection.
The assay was performed in 384-well format. HEK cells stably expressing human GPR40 were plated at 15,000 cells per well in growth medium (DMEM/10% fetal calf serum). Cell plates were then incubated 16 hours at 37 degrees in a 5% CO2 incubator.
Measurement of Inositol Phosphate Turnover (IP1) was performed using the CisBio IP-One kit (Part number 62IPAPEB). After the 16 hour incubation, the cells were washed with HEPES buffer and 10 ul of stimulation buffer (prepared as described in the kit) was added to each well. In a separate plate, compounds were diluted in DMSO (400-fold over the final concentration in the assay well) and 25 nl was acoustically transferred to the appropriate well in the assay cell plate.
The plates were then incubated for 60 minutes at 37 degrees. 10 ul of detection buffer (also prepared as described in the IP-One kit) was added to each well and the plates were incubated for 60 minutes in the dark. The plates were then read in a Perkin Elmer EnVision or equivalent reader able to measure FRET. Fluorescent ratio of emission at 665 and 620 nm was then converted to IP1 concentration by back calculating from an IP1 standard curve prepared at the time of the assay.

[2] = molecular target: T1, Human GPR40; test: FLIPR assay, agonist-induced calcium mobilization in GPR40/CHO NFAT BLA cells
Experimental: as §1
FLIPR (Fluorimetric Imaging Plate Reader, Molecular Devices) assays were performed to measure agonist-induced calcium mobilization of the stable clones. For the FLIPR assay, one day before assay, GPR40/CHO NFAT BLA cells were seeded into black-wall-clear-bottom 384-well plates (Costar) at 1.4×10e4 cells/20 μL medium/well. The cells were incubated with 20 μl/well of the assay buffer (HBSS, 0.1% BSA, 20 mM HEPES, 2.5 mM probenecid, pH 7.4) containing 8 μM fluo-4, AM, 0.08% pluronic acid at room temperature for 100 minutes. Fluorescence output was measured using FLIPR. Compounds were dissolved in DMSO and diluted to desired concentrations with assay buffer. 13.3 μL/well of compound solution was added.

[3] = molecular target: T1, Human GPR40; test: Inositol Phosphate Turnover (IP1) Assay 1, HEK cells stably expressing human GPR40, 3H-inositol SPA; settings: HEK cells stably expressing human GPR40, 96-well
In short: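 HEK cells stably expressing human GPR40, labelled 18 h with 3H-myo-inositol in inositol-free medium with 0.4% human or mouse albumin. LiCl added 20 min at 37 degrees, then compound 60 min at 37 degrees; formic acid lysates counted by YSi SPA beads for inositol phosphates.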

T1 sequence (O14842 whole entry): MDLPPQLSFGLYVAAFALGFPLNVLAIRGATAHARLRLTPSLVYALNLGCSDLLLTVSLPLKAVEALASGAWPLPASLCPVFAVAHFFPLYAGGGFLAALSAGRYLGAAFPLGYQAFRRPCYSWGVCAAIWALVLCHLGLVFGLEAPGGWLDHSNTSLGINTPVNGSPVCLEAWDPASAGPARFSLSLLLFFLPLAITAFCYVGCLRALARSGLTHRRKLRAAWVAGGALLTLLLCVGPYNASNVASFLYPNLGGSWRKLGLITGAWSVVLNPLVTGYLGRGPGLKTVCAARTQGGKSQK

SMILES: COc1cc(C2CC(COc3cccc([C@H](C4CC4)[C@H](C)C(=O)O)c3)C2)c(F)cn1 (single isomer, unassigned) [Example 90]
EC50 [1]: 96 nM

SMILES: COc1cc(C2CC(COc3cccc([C@H](C4CC4)[C@H](C)C(=O)O)c3)C2)c(F)cn1 (single isomer, unassigned) [Example 91]
EC50 [1]: 7.4 nM

SMILES: C[C@H](C(=O)O)[C@H](c1cccc(OCC2CN(Cc3cc(C(F)(F)F)ccc3C(F)(F)F)CCO2)c1)C1CC1 (some centres unmarked) [Example 28]
pEC50 [2]: 7.68
EC50 [3]: 613 nM

SMILES: C[C@H](C(=O)O)[C@H](c1cccc(O[C@H]2CCCN(Cc3cc(C(F)(F)F)ccc3C(F)(F)F)C2)c1)C1CC1 [Example 29]
pEC50 [2]: 7.29
EC50 [3]: 711 nM

SMILES: C[C@H](C(=O)O)[C@H](c1cccc(OCC2CN(c3cccc(C(F)(F)F)n3)C2)c1)C1CC1 [Example 30]
pEC50 [2]: 7.48
EC50 [3]: 279 nM

SMILES: C[C@H](C(=O)O)[C@H](c1cccc(OCC2CCN(Cc3cc(C(F)(F)F)ccc3C(F)(F)F)CC2)c1)C1CC1 [Example 31]
pEC50 [2]: 9.00
EC50 [3]: 77 nM

SMILES: C[C@H](C(=O)O)[C@H](c1cccc(OC2CN(Cc3cc(C(F)(F)F)ccc3C(F)(F)F)C2)c1)C1CC1 [Example 32]
pEC50 [2]: 7.23
EC50 [3]: 764 nM

SMILES: C[C@H](C(=O)O)[C@H](c1cccc(OC[C@H]2CCN(Cc3cc(C(F)(F)F)ccc3C(F)(F)F)C2)c1)C1CC1 [Example 33]
pEC50 [2]: 8.28
EC50 [3]: 158 nM

SMILES: C[C@H](C(=O)O)[C@H](c1cccc(OCC2CCN(Cc3cc(C(F)(F)F)ccc3C(F)(F)F)C2)c1)C1CC1 (some centres unmarked) [Example 34]
pEC50 [2]: 8.00
EC50 [3]: 273 nM

SMILES: O=C(O)C[C@H](c1cccc(OC2CCN(Cc3cc(C(F)(F)F)ccc3Cl)C2)c1)C1CC1 (some centres unmarked) [Example 42]
pEC50 [2]: 7.03
EC50 [3]: 1120 nM

SMILES: CC1(COc2cccc([C@@H](CC(=O)O)C3CC3)c2)CCN(Cc2cc(C(F)(F)F)ccc2C(F)(F)F)C1 (some centres unmarked) [Example 43]
pEC50 [2]: 6.64
EC50 [3]: 952 nM

SMILES: O=C(O)C[C@H](c1cccc(OCC2CCN(Cc3cc(C(F)(F)F)ccc3C(F)(F)F)C2)c1)C1CC1 (some centres unmarked) [Example 47]
pEC50 [2]: 7.38
EC50 [3]: 560 nM

SMILES: O=C(O)C[C@H](c1cccc(OC2CCN(Cc3cc(C(F)(F)F)ccc3C(F)(F)F)CC2)c1)C1CC1 [Example 48]
pEC50 [2]: 6.85
EC50 [3]: 1020 nM

SMILES: O=C(O)C[C@H](c1cccc(OCC2CN(Cc3ccccc3OC(F)(F)F)C2)c1)C1CC1 [Example 50]
pEC50 [2]: 7.26
EC50 [3]: 5030 nM

SMILES: CC(c1cc(C(F)(F)F)ccc1C(F)(F)F)N1CC(COc2cccc([C@@H](CC(=O)O)C3CC3)c2)C1 (some centres unmarked) [Example 54]
pEC50 [2]: 9.22
EC50 [3]: 27 nM

SMILES: COc1cccc(C2CC2COc2cccc([C@@H](CC(=O)O)C3CC3)c2)c1 (some centres unmarked) [Example 61, (3 S)-3-cyclopropyl-3-(3-((2-(3-methoxyphenyl)cyclopropyl)methoxy)phenyl)propanoic acid]
pEC50 [2]: 7.62
EC50 [3]: 651 nM

SMILES: COc1cc(C2CC(COc3cccc([C@H](C4CC4)[C@H](C)C(=O)O)c3)C2)c(F)cn1 (some centres unmarked) [Example 87]
EC50 [1]: 13 nM
EC50 [3]: 23 nM

Next, values leading:

pEC50 [2]: 8.08
EC50 [3]: 251 nM
SMILES: O=C(O)C[C@H](c1cccc(OCC2CN(Cc3cc(C(F)(F)F)ccc3C(F)(F)F)C2)c1)C1CC1 [Example 49]

pEC50 [2]: 7.24
EC50 [3]: 449 nM
SMILES: CC(c1cc(F)ccc1Cl)N1CC(COc2cccc([C@@H](CC(=O)O)C3CC3)c2)C1 (some centres unmarked) [Example 51]

pEC50 [2]: 6.79
EC50 [3]: 5640 nM
SMILES: CC(c1ccccc1Cl)N1CC(COc2cccc([C@@H](CC(=O)O)C3CC3)c2)C1 (some centres unmarked) [Example 52]

pEC50 [2]: 6.41
EC50 [3]: 4570 nM
SMILES: O=C(O)C[C@H](c1cccc(OCC2CN(Cc3c(F)cccc3C(F)(F)F)C2)c1)C1CC1 [Example 53]

pEC50 [2]: 8.14
EC50 [3]: 904 nM
SMILES: CC(c1ccccc1C(F)(F)F)N1CC(COc2cccc([C@@H](CC(=O)O)C3CC3)c2)C1 (some centres unmarked) [Example 55]

pEC50 [2]: 7.64
EC50 [3]: 347 nM
SMILES: CC(c1cc(Cl)ccc1Cl)N1CC(COc2cccc([C@@H](CC(=O)O)C3CC3)c2)C1 (some centres unmarked) [Example 56]

pEC50 [2]: 6.95
EC50 [3]: 366 nM
SMILES: CC(c1cc(C(F)(F)F)ccc1C1CC1)N1CC(COc2cccc([C@@H](CC(=O)O)C3CC3)c2)C1 (some centres unmarked) [Example 58]

pEC50 [2]: 6.36
EC50 [3]: 777 nM
SMILES: Cc1ccc(C(F)(F)F)cc1C(C)N1CC(COc2cccc([C@@H](CC(=O)O)C3CC3)c2)C1 (some centres unmarked) [Example 59]

pEC50 [2]: 6.74
EC50 [3]: 527 nM
SMILES: CC(c1cc(C(F)(F)F)ccc1Cl)N1CC(COc2cccc([C@@H](CC(=O)O)C3CC3)c2)C1 (some centres unmarked) [Example 60]
